In US9040725B2, “Benzocycloheptane and benzoxepine derivatives” (Janssen Pharmaceutica NV, priority 2008, dated 2015):
Counter-ions that a name gives are not always drawn. Like-named read-outs stand apart in the source and are kept apart here. Ends that are not written are not given here.

How the values were obtained:
[1] = target: T1, GHS1A-receptor (Homo sapiens, UniProt Q92847); test: Ghrelin-agonism in HEK293 cells (intracellular calcium, FLIPR); type: cell-based; conditions: HEK293 cells permanently transfected with GHS1A-receptor, calcium fluorescence (fluo-4 or Kit-3), EC50 in M, read-out: pEC50 (converted)
T1 construct: expressed in transfected cells; host or cells: HEK293
Description: One day before the experiment, HEK293 cells, permanently transfected with the gene sequence for expression of the GHS1A-receptor, were seeded in poly-D-Lysine coated 96-well plates with clear bottom, and allowed to grow to […] of confluence on the next day.
Then, cells were incubated with the calcium-sensitive intracellular fluorescent probe fluo-4 or Kit-3 for 1 h at 37° C. Fluorescence representing free intracellular calcium in the cells was measured in a FLIPR-system (excitation at 488 nm, emission>520 nm). Test compounds were added to each well at the desired concentration and the fluorescence signal was simultaneously recorded in all wells. Release of intracellular calcium triggered by activation of the receptors upon addition of the test compound was measured as the fluorescence emitted from the complex of calcium and the fluorescent probe. The drug effect on fluorescence intensity was expressed relative to the maximal fluorescence intensity measured in cells exposed to the calcium-ionophore ionomycin.

[2] = system: mice; test: In house study: gastric emptying of a test meal after intravenous ghrelin in mice; type: in vivo; conditions: intravenous administration to mice; 95% confidence interval 0.058-0.174
Text: (§1) These observations confirm that the gastrointestinal pro-kinetic properties of ghrelin-ligands are mediated by direct interaction with GHS1A-r. Small molecules showing affinity for the GHS1A-r and activating it are therefore anticipated to stimulate gastrointestinal motility in general, and gastric emptying in particular.

[3] = system: transgenic mice with a deletion of GHS1A-r; test: In house study: gastric emptying after ghrelin in transgenic mice with a deletion of GHS1A-r; type: in vivo; conditions: administered up to 2.5 mg/kg
Text: as §1

[4] = system: NMRI-mice; test: Acceleration of gastric emptying and small intestinal propulsion in NMRI-mice; type: in vivo; conditions: Mus musculus, sc, lowest active dose, subcutaneous, 30 min before phenol red test meal
Description: (§2) Male NMRI-mice weighing around 25 gram were fasted for 20 h and had free access to drinking water. Test compounds were administered to the animals by subcutaneous route 30 min before they were given a test meal by oral gavage. The test meal consisted of 0.3 ml of a chocolate nutridrink solution (1.0 kcal/ml) containing phenol red marker (5 mg/ml). Fifteen min after administration of the meal, the mice were sacrificed by CO2 gas inhalation. The phenol red content remaining in the stomach (extracted from the stomach with NaOH) was determined at 557 nm in a spectrophotometer and expressed as extinction units. Small intestinal propulsion was determined as the distance traveled by the phenol red marker through the intestine and expressed as a percentage of total small intestinal length (from the pylorus to the ileo-cecal junction).
The lowest dose that was active for each parameter was noted as the lowest active dose (LAD). Table 12 discloses LAD values.

[5] = system: GHS1A-r+/+ (WT) mice; test: Acceleration of gastric emptying in wild type (GHS1A-r+/+, WT) mice; type: in vivo; conditions: 10 mg/kg subcutaneous 30 minutes before test meal, 15 minutes after meal
Description: (§3) FIG. 1 describes the gastric content (measured as extinction units of phenol red) remaining 15 minutes after administration of a phenol red containing test meal by oral gavage in GHS1A-r^+/+ (WT) and GHS1A-r^−/− (KO) mice pretreated with saline (Vehicle) or compound 3 (10 mg/kg SC) 30 minutes before the meal (individual data and mean, n=3).
as §2, with “junction). […]” for “junction).”

[6] = system: GHS1A-r-/- (KO) mice; test: Acceleration of gastric emptying in GHS1A-r-/- (KO) mice; type: in vivo; conditions: 10 mg/kg subcutaneous 30 minutes before test meal, 15 minutes after meal
Description: as §3
as §2, with “junction). […]” for “junction).”

[7] = active when >60% of animals had phenol red front beyond 85% of small intestinal length, read-out: LAD (mg/kg) Small intestinal propulsion
[8] = stomach content 15 min after meal, active when >60% of animals below 0.9 extinction units, read-out: LAD (mg/kg) Gastric emptying

T1 sequence (Q92847 whole entry): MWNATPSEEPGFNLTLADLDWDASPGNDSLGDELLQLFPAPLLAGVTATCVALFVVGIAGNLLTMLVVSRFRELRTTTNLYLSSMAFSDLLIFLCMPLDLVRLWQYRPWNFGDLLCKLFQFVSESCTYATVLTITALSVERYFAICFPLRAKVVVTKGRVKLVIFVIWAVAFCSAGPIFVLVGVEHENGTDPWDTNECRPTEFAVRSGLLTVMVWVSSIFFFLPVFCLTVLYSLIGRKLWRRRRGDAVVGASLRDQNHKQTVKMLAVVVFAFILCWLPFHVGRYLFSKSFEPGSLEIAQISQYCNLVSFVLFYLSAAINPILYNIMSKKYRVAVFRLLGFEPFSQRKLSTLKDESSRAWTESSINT

Compound	EC50 [1] [nM]	melting point [°C]	also measured
CC(=O)N1CCN(CCCC2(O)c3ccccc3CCCC2c2ccc(C)cc2)CC1 (racemic) [Compound 34]	3160	216.2	–
COc1ccc(C2CCCc3ccccc3C2(O)CCCN2CCN(C(C)=O)CC2)cc1 (racemic) [Compound 71]	> 10000	165.1	–
ghrelin (GSSFLSPEHQRVQQRKESKKPPAKLQPR; ends and bridges not checked; UniProt Q9UBU3 24-51, looked up) ["an endogenous peptide hormone ... the natural ligand for the type 1 growth hormone secretagogue receptor (GHS1A-r)"]	–	–	ED50 stimulation of gastric emptying of a test meal [2]: 0.100 mg/kg; effect on gastric emptying [3]: no effect
CC(C)NCCCC1(O)c2ccccc2CCCC1c1cnc2ccccc2c1 (racemic) [Compound 86]	631	115.2	–
CN(C)CCCC1(O)c2ccccc2CCCC1c1cncnc1 (racemic) [Compound 84]	7940	134.3	–
CN(C)CCCC1(O)c2ccccc2CCCC1c1cnc2ccccc2c1 (racemic) [Compound 85]	100	150.3	minimal effective dose [4, 7]: > 10 mg/kg; minimal effective dose [4, 8]: > 10 mg/kg
CNCCCC1(O)c2ccccc2CCCC1c1cccc(C)c1 (racemic) (as salt: oxalate) [Compound 22]	–	137.4	–
OC1(CCCN2CCCC2)c2ccccc2CCCC1c1ccc(Cl)cc1 (racemic) (as salt: oxalate) [Compound 48]	–	236.2	–
OC1(CCCN2CCCCC2)c2ccccc2CCCC1c1ccc(Cl)cc1 (racemic) (as salt: oxalate) [Compound 50]	–	201.1	–
Cc1ccc(C2CCCc3ccccc3C2(O)CCCN2CCCC2)cc1 (racemic) [Compound 28]	158	139.8	minimal effective dose [4, 7]: > 10 mg/kg; minimal effective dose [4, 8]: > 10 mg/kg
COc1cccc([C@H]2CCCc3ccccc3[C@]2(O)CCCN(C)C)c1 (racemic) (as salt: oxalate) [Compound 14, (±)cis-5-(3-Dimethylamino-propyl)-6-(3-methoxy-phenyl)-6,7,8,9-tetrahydro-5H-benzocyclohepten-5-ol oxalate]	–	108	–
CNCCCC1(O)c2ccccc2CCCC1c1ccccc1 (racemic) (as salt: oxalate) [Compound 19]	–	129	–
CN(C)CCC[C@@]1(O)c2ccccc2OCC[C@@H]1c1ccccc1 (relative stereo) (as salt: oxalate) [Compound 8]	–	136	–
OC1(CCCN2CCCC2)c2ccccc2CCCC1c1ccccc1 (racemic) (as salt: oxalate) [Compound 21]	–	202	–
CN(C)CCCC1(O)c2ccccc2CCCC1c1ccccc1 (single isomer, unassigned) (as salt: oxalate) [Compound 104]	–	210	–
COc1cccc(C2CCCc3ccccc3C2(O)CCCN2CCN(C(C)=O)CC2)c1 (racemic) [Compound 63]	> 10000	153	–

Further lines, with some results ahead:

EC50 [1] [nM]	melting point [°C]	Compound	also measured
20	–	CN(C)CCCC1(O)c2ccccc2CCCC1c1ccc(Cl)cc1 (single isomer, unassigned) [Compound 3]	minimal effective dose [4, 7]: 0.63 mg/kg; minimal effective dose [4, 8]: 0.63 mg/kg; meal content remaining in the stomach versus vehicle [5]: emptied more than vehicle treated WT mice; meal content remaining in the stomach versus vehicle [6]: no difference in remaining gastric content
6310	141.4	CCN(CC)CCCC1(O)c2ccccc2CCCC1c1ccc(O)cc1 (racemic) [Compound 36]	–
–	140	COCCN(C)CCCC1(O)c2ccccc2CCCC1c1ccc(F)cc1F (racemic) (as salt: oxalate) [Compound 58]	–
–	191.1	COCCN(C)CCCC1(O)c2ccccc2CCCC1c1ccc(O)cc1 (racemic) (as salt: oxalate) [Compound 37]	–
–	134.3	CNCCCC1(O)c2ccccc2CCCC1c1ccc(OC)cc1 (racemic) (as salt: oxalate) [Compound 65]	–
–	189.8	CCN(CC)CCCC1(O)c2ccccc2CCCC1c1ccc(Cl)cc1 (racemic) (as salt: HCl) [Compound 46]	–
–	144.9	COCCN(C)CCCC1(O)c2ccccc2CCCC1c1ccc(C)cc1 (racemic) (as salt: oxalate) [Compound 30]	–
–	158.6	CCN(CC)CCCC1(O)c2ccccc2CCCC1c1ccc(C)cc1 (racemic) (as salt: oxalate) [Compound 31]	–
